Laboratory results from patent publication USRE48175E1, “Hydrophobically tagged small molecules as inducers of protein degradation” (Dana-Farber Cancer Institute, Inc., priority 2012, dated 2020).

Legend:
[1] = target: T1, ErbB3(667-1053) protein (Her3) (Homo sapiens, UniProt P21860); assay: LanthaScreen Eu kinase binding assay (Her3 ATP-site binding); conditions: binding to the ATP-site of Her3
T1 construct: Purified ErbB3(667-1053) protein was obtained from Invitrogen; purchased Invitrogen
T1 sequence (P21860 667-1053): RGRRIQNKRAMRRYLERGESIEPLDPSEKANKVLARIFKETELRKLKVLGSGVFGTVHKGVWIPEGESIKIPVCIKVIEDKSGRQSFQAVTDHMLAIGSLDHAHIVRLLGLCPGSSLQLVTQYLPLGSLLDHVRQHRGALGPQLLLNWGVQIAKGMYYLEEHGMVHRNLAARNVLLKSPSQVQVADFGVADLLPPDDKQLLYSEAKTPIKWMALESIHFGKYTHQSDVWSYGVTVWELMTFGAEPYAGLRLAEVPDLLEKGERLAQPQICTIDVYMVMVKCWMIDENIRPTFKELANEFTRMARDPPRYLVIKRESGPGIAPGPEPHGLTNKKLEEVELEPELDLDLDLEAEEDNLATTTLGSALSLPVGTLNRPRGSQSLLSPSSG
Protocol: To discover chemical starting points for developing Her3 inhibitors, the inventors screened a library of 1,500 kinase-directed compounds using the LanthaScreen™ Eu methodology for compounds that could bind to the ATP-site of Her3. […] See, e.g., Stachlewitz et al., J Pharmacol Exp Ther. (2005) 315:36-41.
FIG. 2 depicts binding affinity data for exemplary compounds of Formula (II). Binding affinity (IC50) was measured by Invitrogen LanthaScreen™ Eu kinase binding assay which is based on the binding and displacement of Alexa Fluor 647 labeled ATP-competitive kinase inhibitor scaffold (Kinase Tracer 178). Binding of the tracer to the kinase is detected using a europium-labeled anti-tag antibody (anti-GST). The binding of both the tracer and antibody to the kinase results in a high degree of FRET (fluorescenece resonance energy transfer) from the europium donor fluorophore to the Alexa Fluor 647 acceptor fluoropore on the kinase tracer. […] This centrifugation step will eliminate spurious data points that can arise on occasion due to any particulates in the product. • (3) Add 5 ul the mixture of ErbB3 protein and Eu-anti-GST to 5 ul test compound solution per well in coming 384 plates. • (4) Add 5 ul tracer 178 at concentration of 39 nM per well. • (5) Incubate for 3 hours at 4° C. and read plate with Perkin Elmer EnVision. […]

Her3-addicted cells = assay: Her3-dependent growth / viability of Her3-addicted cells; assay type: cell-based
Source text: (§1) Without wishing to be bound by any particular theory, the inventors hypothesize that this lack of inhibition is the result of poor cell penetration of TX2-62-1 due to its high molecular weight (MW=828.5). The inventors tested this hypothesis by designing a strategy whereby the two halves of TX2-62-1 (TX2-49-1 and TX2-57-1) were brought together inside of a cell via oxime formation. See Scheme 1 below.
FIG. 3 depicts anti-proliferation data for exemplary compounds of Formula (II). The anti-proliferation assay was carried out by using 96 well white bottom plates. 2000-4000 cells were seeded per well, and the medium volume per well was about 100 ul. Incubate for 3 days after adding and titrating indicated concentration of compounds. The cell viability was test by CellTiter-Glo® Luminescent Assay. In a typical experiment, add 10 ul CellTiter-Glo® reagent per well. Mix and shake the plate for 2 minutes to induce cell lysis at room temperature. Allow the plate to incubate at room temperature for approximately 10 minutes to stabilize luminescent signal. Read plate with Perkin Elmer EnVision. The cell numbers were normalized by the DMSO control. And the EC50s were calculated by GraphPad Prism.

[2] = tested on: downstream effectors of Her3, such as Erk and Akt; assay: Phosphorylation of downstream effectors of Her3 (Erk, Akt) in cells; assay type: cell-based; conditions: TX2-62-1 formed inside the cell from TX2-49-1 and TX2-57-1 via oxime formation
Protocol: as §1
(§2) PC9 Gefitinib Resistant 4 (GR4) cells were cultured in 60 mm plate with 10% fetal bovine serum (FBS), Roswell Park Memorial Institute medium (RPMI) medium. When the confluence reached 80%, cells were treated with compounds in indicated concentration. After 4 hours, wash cells with medium for three times. Cells were cultured for another 4 hours, followed by 3 times PBS washes. Cells were lysed with lysis buffer (25 mM Tris-HCl pH 7.4, 150 mM NaCl, 1 mM EDTA, 1% NP-40, 5% glycerol, Roche PhosSTOP phosphatase inhibitor cocktail tablets and Roche Complete Protease inhibitor cocktail tablets). […]
(§3) With the spectrophotometer set to 562 nm, zero the instrument on a cuvette filled only with water. Subsequently, measure the absorbance of all the samples with 10 minutes. Subtract the average 562 nm absorbance measurement of the Blank standard replicates from the 562 nm absorbance measurement of all other individual standard and unknown sample replicates. […]

Her3 = target: T2, Her3 (Homo sapiens, UniProt P21860); assay: Her3 protein degradation in cells; assay type: cell-based
T2 construct: endogenous in cells; host or cells: PC9 GR4
T2 sequence (P21860 20-1342): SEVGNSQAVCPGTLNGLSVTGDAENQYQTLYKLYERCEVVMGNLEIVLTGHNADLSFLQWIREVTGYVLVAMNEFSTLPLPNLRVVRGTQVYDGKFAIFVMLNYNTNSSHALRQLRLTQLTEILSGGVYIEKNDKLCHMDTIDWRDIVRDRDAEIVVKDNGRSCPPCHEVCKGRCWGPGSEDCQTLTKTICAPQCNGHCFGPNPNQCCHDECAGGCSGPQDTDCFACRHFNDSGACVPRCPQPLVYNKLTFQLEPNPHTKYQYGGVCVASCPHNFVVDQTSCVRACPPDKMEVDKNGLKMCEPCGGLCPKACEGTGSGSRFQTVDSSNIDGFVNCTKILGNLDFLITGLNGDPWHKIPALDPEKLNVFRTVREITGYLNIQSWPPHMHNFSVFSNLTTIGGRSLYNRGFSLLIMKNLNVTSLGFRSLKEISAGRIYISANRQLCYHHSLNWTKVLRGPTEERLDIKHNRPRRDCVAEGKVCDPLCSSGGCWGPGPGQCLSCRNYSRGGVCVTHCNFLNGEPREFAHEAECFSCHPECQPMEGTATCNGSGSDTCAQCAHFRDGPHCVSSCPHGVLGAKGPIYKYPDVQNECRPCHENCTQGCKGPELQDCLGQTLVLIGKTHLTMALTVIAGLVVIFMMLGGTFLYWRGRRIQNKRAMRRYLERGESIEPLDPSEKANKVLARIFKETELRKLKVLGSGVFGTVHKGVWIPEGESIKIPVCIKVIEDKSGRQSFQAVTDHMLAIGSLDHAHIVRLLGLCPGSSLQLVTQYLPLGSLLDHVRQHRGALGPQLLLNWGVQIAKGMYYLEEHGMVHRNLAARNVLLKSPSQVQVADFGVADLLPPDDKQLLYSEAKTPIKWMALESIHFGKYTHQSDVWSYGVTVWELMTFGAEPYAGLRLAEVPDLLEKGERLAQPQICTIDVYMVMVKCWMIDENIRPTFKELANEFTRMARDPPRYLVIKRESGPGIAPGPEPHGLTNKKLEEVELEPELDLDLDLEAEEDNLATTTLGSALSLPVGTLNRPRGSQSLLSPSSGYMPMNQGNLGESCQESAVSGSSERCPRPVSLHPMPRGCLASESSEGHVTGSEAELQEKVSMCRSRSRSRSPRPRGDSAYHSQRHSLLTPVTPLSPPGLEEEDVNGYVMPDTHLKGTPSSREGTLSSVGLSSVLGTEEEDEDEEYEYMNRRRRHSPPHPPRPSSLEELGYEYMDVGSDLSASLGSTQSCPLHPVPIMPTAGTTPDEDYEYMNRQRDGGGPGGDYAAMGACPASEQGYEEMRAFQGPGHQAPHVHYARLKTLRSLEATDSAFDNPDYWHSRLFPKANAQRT
Protocol: as §1, §2, §3

[3] = TX2-62-1 formed inside the cell from TX2-49-1 and TX2-57-1 via oxime formation

| degradation of Her3 (Her3; [3]) | Her3 protein level after washout (Her3; after TX2-62-1 was washed out) | SMILES | Her3 binding [1] | viability of Her3-addicted cells (Her3-addicted cells; [3]) | cell proliferation after washout (Her3-addicted cells; after TX2-62-1 was washed out) | inhibition of Her3-dependent growth (Her3-addicted cells; compound added as preformed molecule) | inhibition of Her3-dependent signaling [2] |
| --- | --- | --- | --- | --- | --- | --- | --- |
|  |  | COc1cc(-c2nn(C3CCC(N4CCN(C(C)=O)CC4)CC3)c3ncnc(N)c23)ccc1NC(=O)c1cc2ccccc2n1C (centres unmarked) [KIN001-111, reference compound] | most potent Her3 binder |  |  |  |  |
| efficient degradation of Her3 | Her3 protein was resynthesized | C=CC(=O)Nc1cc(-c2nn(C3CCC(N4CCN(C/C(C)=N/OCCNC(=O)CC5C6CC7CC(C6)CC5C7)CC4)CC3)c3ncnc(N)c23)ccc1Oc1ccccc1 (centres unmarked) [TX2-62-1] | maintained potent and covalent Her3 binding ability | loss of viability of Her3-addicted cells | cell proliferation resumed | did not inhibit Her3-dependent growth | inhibition of Her3-dependent signaling |
